Test results reported in the supplement of paper PMC11451515.

Tested on: SEM cells
Test: cell viability relative to DMSO control; higher = less cytotoxic
Details: 48 h
Method in brief: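 NOMO1 or SEM (500 cells/well) or P12-Ichikawa (1000 cells/well) leukemia cells were adapted for at least four passages in each medium. They were seeded in 1536-well plates (5 μl) and pin-dosed with library compounds in DMSO over an 11-point threefold series, 47 μM to 0.79 nM. CellTiter-Glo One luminescence was read after 48 h at 37°C. Viability is the per-plate percentage relative to DMSO wells, with cell-free wells as background.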

[1] = HPLM + 10% dialyzed FBS, 0.000781 µM
[2] = HPLM + 10% dialyzed FBS, 0.00234 µM
[3] = HPLM + 10% dialyzed FBS, 0.00702 µM
[4] = HPLM + 10% dialyzed FBS, 0.0211 µM
[5] = HPLM + 10% dialyzed FBS, 0.0632 µM
[6] = HPLM + 10% dialyzed FBS, 0.19 µM
[7] = HPLM + 10% dialyzed FBS, 0.569 µM
[8] = HPLM + 10% dialyzed FBS, 1.71 µM
[9] = HPLM + 10% dialyzed FBS, 5.12 µM
[10] = HPLM + 10% dialyzed FBS, 15.4 µM
[11] = HPLM + 10% dialyzed FBS, 46.1 µM
[12] = RPMI 5 mM glucose + 10% FBS, 0.000781 µM
[13] = RPMI 5 mM glucose + 10% FBS, 0.00234 µM
[14] = RPMI 5 mM glucose + 10% FBS, 0.00702 µM
[15] = RPMI 5 mM glucose + 10% FBS, 0.0211 µM
[16] = RPMI 5 mM glucose + 10% FBS, 0.0632 µM
[17] = RPMI 5 mM glucose + 10% FBS, 0.19 µM
[18] = RPMI 5 mM glucose + 10% FBS, 0.569 µM
[19] = RPMI 5 mM glucose + 10% FBS, 1.71 µM
[20] = RPMI 5 mM glucose + 10% FBS, 5.12 µM
[21] = RPMI 5 mM glucose + 10% FBS, 15.4 µM
[22] = RPMI 5 mM glucose + 10% FBS, 46.1 µM
[23] = RPMI 5 mM glucose + 10% dialyzed FBS, 0.000781 µM
[24] = RPMI 5 mM glucose + 10% dialyzed FBS, 0.00234 µM
[25] = RPMI 5 mM glucose + 10% dialyzed FBS, 0.00702 µM
[26] = RPMI 5 mM glucose + 10% dialyzed FBS, 0.0211 µM
[27] = RPMI 5 mM glucose + 10% dialyzed FBS, 0.0632 µM
[28] = RPMI 5 mM glucose + 10% dialyzed FBS, 0.19 µM
[29] = RPMI 5 mM glucose + 10% dialyzed FBS, 0.569 µM
[30] = RPMI 5 mM glucose + 10% dialyzed FBS, 1.71 µM
[31] = RPMI 5 mM glucose + 10% dialyzed FBS, 5.12 µM
[32] = RPMI 5 mM glucose + 10% dialyzed FBS, 15.4 µM
[33] = RPMI 5 mM glucose + 10% dialyzed FBS, 46.1 µM

Compound `CC(C)c1onc(-c2c(Cl)cccc2Cl)c1COc1ccc(/C=C/c2cccc(C(=O)O)c2)c(Cl)c1` has a cell viability [1] of 122%, a cell viability [2] of 130% and a cell viability [3] of 114%. It also gave a cell viability [4] of 120%, a cell viability [5] of 121% and a cell viability [6] of 129%. It also gave a cell viability [7] of 115%, a cell viability [8] of 116% and a cell viability [9] of 125%. The cell viability [10] was 108%, the cell viability [11] was 91.5% and the cell viability [12] was 117%. For the same compound, the cell viability [13] was 119%, the cell viability [14] was 109% and the cell viability [15] was 128%. The cell viability [16] was 127%, the cell viability [17] was 120% and the cell viability [18] was 105%. The cell viability [19] was 120%, the cell viability [20] was 115% and the cell viability [21] was 106%. It also gave a cell viability [22] of 85.7%, a cell viability [23] of 119% and a cell viability [24] of 134%. The cell viability [25] was 120%, the cell viability [26] was 146% and the cell viability [27] was 132%. The cell viability [28] was 128%, the cell viability [29] was 118% and the cell viability [30] was 117%. For the same compound, the cell viability [31] was 115%, the cell viability [32] was 104% and the cell viability [33] was 95.1%.

Work on `CC(C)(N)c1ccc(-c2nc3ccccc3nc2-c2ccccc2)cc1` yielded a cell viability [1] of 99.5%, a cell viability [2] of 109% and a cell viability [3] of 117%. The cell viability [4] was 100%, the cell viability [5] was 38.5% and the cell viability [6] was 15.5%. For the same compound, the cell viability [7] was 6.7%, the cell viability [8] was 6.11% and the cell viability [9] was 5.5%. It also gave a cell viability [10] of 3.11%, a cell viability [11] of 3.57% and a cell viability [12] of 110%. For the same compound, the cell viability [13] was 103%, the cell viability [14] was 93.7% and the cell viability [15] was 36.2%. The cell viability [16] was 12.4%, the cell viability [17] was 7.19% and the cell viability [18] was 5.88%. For the same compound, the cell viability [19] was 5.02%, the cell viability [20] was 4.24% and the cell viability [21] was 2.31%. For the same compound, the cell viability [22] was 3.42%, the cell viability [23] was 99.5% and the cell viability [24] was 106%. It also gave a cell viability [25] of 101%, a cell viability [26] of 86.3% and a cell viability [27] of 17.5%. The cell viability [28] was 10%, the cell viability [29] was 6.06% and the cell viability [30] was 4.9%. It also gave a cell viability [31] of 4.26%, a cell viability [32] of 2.44% and a cell viability [33] of 3.2%.

Compound `C[C@]12CC[C@H]3[C@@H](CC(=C)\C4=C\C(=O)\C=C/[C@]34C)[C@@H]1CCC2=O` has a cell viability [1] of 89.7%, a cell viability [2] of 92.6% and a cell viability [3] of 96.3%. For the same compound, the cell viability [4] was 105%, the cell viability [5] was 107% and the cell viability [6] was 92.8%. For the same compound, the cell viability [7] was 94.4%, the cell viability [8] was 90.7% and the cell viability [9] was 97.8%. It also gave a cell viability [10] of 34.9%, a cell viability [11] of 64.8% and a cell viability [12] of 111%. It also gave a cell viability [13] of 90.8%, a cell viability [14] of 89.2% and a cell viability [15] of 96.9%. It also gave a cell viability [16] of 98%, a cell viability [17] of 95.3% and a cell viability [18] of 104%. For the same compound, the cell viability [19] was 106%, the cell viability [20] was 114% and the cell viability [21] was 36.5%. It also gave a cell viability [22] of 54.6%, a cell viability [23] of 98.1% and a cell viability [24] of 86.9%. It also gave a cell viability [25] of 96.4%, a cell viability [26] of 110% and a cell viability [27] of 103%. For the same compound, the cell viability [28] was 101%, the cell viability [29] was 115% and the cell viability [30] was 111%. It also gave a cell viability [31] of 115%, a cell viability [32] of 33.2% and a cell viability [33] of 59.9%.

`CC(=O)SC[C@@H](C)C(=O)N1CCC[C@H]1C(=O)N[C@@H](Cc1ccccc1)C(=O)O` was tested, and the cell viability [1] was 116%, the cell viability [2] was 107% and the cell viability [3] was 99.6%. It also gave a cell viability [4] of 110%, a cell viability [5] of 115% and a cell viability [6] of 103%. For the same compound, the cell viability [7] was 111%, the cell viability [8] was 106% and the cell viability [9] was 107%. The cell viability [10] was 66.7%, the cell viability [11] was 83.3% and the cell viability [12] was 83.8%. The cell viability [13] was 86.2%, the cell viability [14] was 95.3% and the cell viability [15] was 98.1%. The cell viability [16] was 105%, the cell viability [17] was 97.7% and the cell viability [18] was 110%. For the same compound, the cell viability [19] was 97.2%, the cell viability [20] was 113% and the cell viability [21] was 87.1%. It also gave a cell viability [22] of 72.6%, a cell viability [23] of 95.1% and a cell viability [24] of 98.3%. For the same compound, the cell viability [25] was 114%, the cell viability [26] was 104% and the cell viability [27] was 104%. For the same compound, the cell viability [28] was 103%, the cell viability [29] was 107% and the cell viability [30] was 101%. It also gave a cell viability [31] of 110%, a cell viability [32] of 101% and a cell viability [33] of 85.7%.
